# Test results taken from patent US10647747B2, “Cyclosporin derivatives and uses thereof” (S&T Global Inc., priority 2010, dated 2020).
# Test system: HCV replicon in cell line ET (luc-ubi-neo/ET), Huh7 human hepatoma
# Assay: HCV subgenomic replicon assay, luciferase end point
# Type: cell-based
# Settings: HCV subgenomic replicon, cell line ET (luc-ubi-neo/ET) Huh7, luciferase end point; read-out: Antiviral activity EC50
row,SMILES,EC50 [nM]
1,CC=CCC(C)C(O)C1C(=O)NC(CC)C(=O)N(C)C(COCCN(CC)CC)C(=O)N(C)C(CC(C)(C)O)C(=O)NC(C(C)C)C(=O)N(C)C(CC(C)C)C(=O)NC(C)C(=O)NC(C)C(=O)N(C)C(CC(C)C)C(=O)N(C)C(CC(C)C)C(=O)N(C)C(C(C)C)C(=O)N1C (stereo not shown),120
2,C/C=C/C[C@@H](C)[C@@H](O)[C@H]1C(=O)N[C@@H](CC)C(=O)N(C)[C@H](COCCN(CC)CC)C(=O)N(C)[C@@H](CC(C)(C)OC)C(=O)N[C@@H](C(C)C)C(=O)N(C)[C@@H](CC(C)C)C(=O)N[C@@H](C)C(=O)N[C@H](C)C(=O)N(C)[C@@H](CC(C)C)C(=O)N(C)[C@@H](CC(C)C)C(=O)N(C)[C@@H](C(C)C)C(=O)N1C,60
3,C/C=C/C[C@@H](C)[C@@H](O)[C@H]1C(=O)N[C@@H](CC)C(=O)N(C)[C@H](COCCN(C)C)C(=O)N(C)[C@@H](CC(C)(C)OC)C(=O)N[C@@H](C(C)C)C(=O)N(C)[C@@H](CC(C)C)C(=O)N[C@@H](C)C(=O)N[C@H](C)C(=O)N(C)[C@@H](CC(C)C)C(=O)N(C)[C@@H](CC(C)C)C(=O)N(C)[C@@H](C(C)C)C(=O)N1C,150
4,CC=CCC(C)C(O)C1C(=O)NC(CC)C(=O)N(C)C(COCCN(C)C)C(=O)N(C)C(CC(C)(C)O)C(=O)NC(C(C)C)C(=O)N(C)C(CC(C)C)C(=O)NC(C)C(=O)NC(C)C(=O)N(C)C(CC(C)C)C(=O)N(C)C(CC(C)C)C(=O)N(C)C(C(C)C)C(=O)N1C (stereo not shown),240
5,C/C=C/C[C@@H](C)[C@@H](O)[C@H]1C(=O)N[C@@H](CC)C(=O)N(C)[C@H](COCCCN2CCCC2)C(=O)N(C)[C@@H](CC(C)(C)O)C(=O)N[C@@H](C(C)C)C(=O)N(C)[C@@H](CC(C)C)C(=O)N[C@@H](C)C(=O)N[C@H](C)C(=O)N(C)[C@@H](CC(C)C)C(=O)N(C)[C@@H](CC(C)C)C(=O)N(C)[C@@H](C(C)C)C(=O)N1C,220
6,CC=CCC(C)C(O)C1C(=O)NC(CC)C(=O)N(C)C(COCCCN(CC)CC)C(=O)N(C)C(CC(C)(C)O)C(=O)NC(C(C)C)C(=O)N(C)C(CC(C)C)C(=O)NC(C)C(=O)NC(C)C(=O)N(C)C(CC(C)C)C(=O)N(C)C(CC(C)C)C(=O)N(C)C(C(C)C)C(=O)N1C (stereo not shown),180
7,CC=CCC(C)C(O)C1C(=O)NC(CC)C(=O)N(C)C(COCCCN(CC)CC)C(=O)N(C)C(CC(C)(C)OC)C(=O)NC(C(C)C)C(=O)N(C)C(CC(C)C)C(=O)NC(C)C(=O)NC(C)C(=O)N(C)C(CC(C)C)C(=O)N(C)C(CC(C)C)C(=O)N(C)C(C(C)C)C(=O)N1C (stereo not shown),100
8,C/C=C/C[C@@H](C)[C@@H](O)[C@H]1C(=O)N[C@@H](CC)C(=O)N(C)[C@H](COCCCN(C)C)C(=O)N(C)[C@@H](CC(C)(C)O)C(=O)N[C@@H](C(C)C)C(=O)N(C)[C@@H](CC(C)C)C(=O)N[C@@H](C)C(=O)N[C@H](C)C(=O)N(C)[C@@H](CC(C)C)C(=O)N(C)[C@@H](CC(C)C)C(=O)N(C)[C@@H](C(C)C)C(=O)N1C,260
9,CC=CCC(C)C(O)C1C(=O)NC(CC)C(=O)N(C)C(CSCCN2CCN(C)CC2)C(=O)N(C)C(CC(C)(C)O)C(=O)NC(C(C)C)C(=O)N(C)C(CC(C)C)C(=O)NC(C)C(=O)NC(C)C(=O)N(C)C(CC(C)C)C(=O)N(C)C(CC(C)C)C(=O)N(C)C(C(C)C)C(=O)N1C (stereo not shown),90
10,CC=CCC(C)C(O)C1C(=O)NC(CC)C(=O)N(C)C(CSCCN(CC)C(C)C)C(=O)N(C)C(CC(C)(C)O)C(=O)NC(C(C)C)C(=O)N(C)C(CC(C)C)C(=O)NC(C)C(=O)NC(C)C(=O)N(C)C(CC(C)C)C(=O)N(C)C(CC(C)C)C(=O)N(C)C(C(C)C)C(=O)N1C (stereo not shown),70
11,CC=CCC(C)C(O)C1C(=O)NC(CC)C(=O)N(C)C(CSCCN(CC)CC(C)(C)C)C(=O)N(C)C(CC(C)(C)O)C(=O)NC(C(C)C)C(=O)N(C)C(CC(C)C)C(=O)NC(C)C(=O)NC(C)C(=O)N(C)C(CC(C)C)C(=O)N(C)C(CC(C)C)C(=O)N(C)C(C(C)C)C(=O)N1C (stereo not shown),60
12,CC=CCC(C)C(O)C1C(=O)NC(CC)C(=O)N(C)C(CSCCN(C)C(C)C)C(=O)N(C)C(CC(C)(C)O)C(=O)NC(C(C)C)C(=O)N(C)C(CC(C)C)C(=O)NC(C)C(=O)NC(C)C(=O)N(C)C(CC(C)C)C(=O)N(C)C(CC(C)C)C(=O)N(C)C(C(C)C)C(=O)N1C (stereo not shown),100
13,CC=CCC(C)C(O)C1C(=O)NC(CC)C(=O)N(C)C(CSCCN(C)CC(C)(C)C)C(=O)N(C)C(CC(C)(C)O)C(=O)NC(C(C)C)C(=O)N(C)C(CC(C)C)C(=O)NC(C)C(=O)NC(C)C(=O)N(C)C(CC(C)C)C(=O)N(C)C(CC(C)C)C(=O)N(C)C(C(C)C)C(=O)N1C (stereo not shown),70
14,CC=CCC(C)C(O)C1C(=O)NC(CC)C(=O)N(C)C(CSCCN2CCCCC2)C(=O)N(C)C(CC(C)(C)O)C(=O)NC(C(C)C)C(=O)N(C)C(CC(C)C)C(=O)NC(C)C(=O)NC(C)C(=O)N(C)C(CC(C)C)C(=O)N(C)C(CC(C)C)C(=O)N(C)C(C(C)C)C(=O)N1C (stereo not shown),80
15,CC=CCC(C)C(O)C1C(=O)NC(CC)C(=O)N(C)C(CSCCN2CCCC2)C(=O)N(C)C(CC(C)(C)O)C(=O)NC(C(C)C)C(=O)N(C)C(CC(C)C)C(=O)NC(C)C(=O)NC(C)C(=O)N(C)C(CC(C)C)C(=O)N(C)C(CC(C)C)C(=O)N(C)C(C(C)C)C(=O)N1C (stereo not shown),110
16,CC=CCC(C)C(O)C1C(=O)NC(CC)C(=O)N(C)C(CSCCN(CC(C)C)CC(C)C)C(=O)N(C)C(CC(C)(C)O)C(=O)NC(C(C)C)C(=O)N(C)C(CC(C)C)C(=O)NC(C)C(=O)NC(C)C(=O)N(C)C(CC(C)C)C(=O)N(C)C(CC(C)C)C(=O)N(C)C(C(C)C)C(=O)N1C (stereo not shown),120
17,CC=CCC(C)C(O)C1C(=O)NC(CC)C(=O)N(C)C(CSCCN(C)C)C(=O)N(C)C(CC(C)(C)OC)C(=O)NC(C(C)C)C(=O)N(C)C(CC(C)C)C(=O)NC(C)C(=O)NC(C)C(=O)N(C)C(CC(C)C)C(=O)N(C)C(CC(C)C)C(=O)N(C)C(C(C)C)C(=O)N1C (stereo not shown),100
18,C/C=C/C[C@@H](C)[C@@H](O)[C@H]1C(=O)N[C@@H](CC)C(=O)N(C)[C@H](CSCCCN2CCN(C)CC2)C(=O)N(C)[C@@H](CC(C)(C)O)C(=O)N[C@@H](C(C)C)C(=O)N(C)[C@@H](CC(C)C)C(=O)N[C@@H](C)C(=O)N[C@H](C)C(=O)N(C)[C@@H](CC(C)C)C(=O)N(C)[C@@H](CC(C)C)C(=O)N(C)[C@@H](C(C)C)C(=O)N1C,90
19,CC=CCC(C)C(O)C1C(=O)NC(CC)C(=O)N(C)C(CSCCCN(CC)C(C)C)C(=O)N(C)C(CC(C)(C)O)C(=O)NC(C(C)C)C(=O)N(C)C(CC(C)C)C(=O)NC(C)C(=O)NC(C)C(=O)N(C)C(CC(C)C)C(=O)N(C)C(CC(C)C)C(=O)N(C)C(C(C)C)C(=O)N1C (stereo not shown),60
20,CC=CCC(C)C(O)C1C(=O)NC(CC)C(=O)N(C)C(CSCCCN2CCOCC2)C(=O)N(C)C(CC(C)(C)OC)C(=O)NC(C(C)C)C(=O)N(C)C(CC(C)C)C(=O)NC(C)C(=O)NC(C)C(=O)N(C)C(CC(C)C)C(=O)N(C)C(CC(C)C)C(=O)N(C)C(C(C)C)C(=O)N1C (stereo not shown),100
21,C/C=C/C[C@@H](C)[C@@H](O)[C@H]1C(=O)N[C@@H](CC)C(=O)N(C)[C@H](CSCCCN2CCOCC2)C(=O)N(C)[C@@H](CC(C)(C)O)C(=O)N[C@@H](C(C)C)C(=O)N(C)[C@@H](CC(C)C)C(=O)N[C@@H](C)C(=O)N[C@H](C)C(=O)N(C)[C@@H](CC(C)C)C(=O)N(C)[C@@H](CC(C)C)C(=O)N(C)[C@@H](C(C)C)C(=O)N1C,50
22,CC=CCC(C)C(O)C1C(=O)NC(CC)C(=O)N(C)C(CSCCCN2CCCCC2)C(=O)N(C)C(CC(C)(C)O)C(=O)NC(C(C)C)C(=O)N(C)C(CC(C)C)C(=O)NC(C)C(=O)NC(C)C(=O)N(C)C(CC(C)C)C(=O)N(C)C(CC(C)C)C(=O)N(C)C(C(C)C)C(=O)N1C (stereo not shown),50
23,CC=CCC(C)C(O)C1C(=O)NC(CC)C(=O)N(C)C(CSCCCN2CCCC2)C(=O)N(C)C(CC(C)(C)OC)C(=O)NC(C(C)C)C(=O)N(C)C(CC(C)C)C(=O)NC(C)C(=O)NC(C)C(=O)N(C)C(CC(C)C)C(=O)N(C)C(CC(C)C)C(=O)N(C)C(C(C)C)C(=O)N1C (stereo not shown),100
24,CC=CCC(C)C(O)C1C(=O)NC(CC)C(=O)N(C)C(CSCCCN2CCCC2)C(=O)N(C)C(CC(C)(C)O)C(=O)NC(C(C)C)C(=O)N(C)C(CC(C)C)C(=O)NC(C)C(=O)NC(C)C(=O)N(C)C(CC(C)C)C(=O)N(C)C(CC(C)C)C(=O)N(C)C(C(C)C)C(=O)N1C (stereo not shown),100
25,C/C=C/C[C@@H](C)[C@@H](O)[C@H]1C(=O)N[C@@H](CC)C(=O)N(C)[C@H](CSCCCN(CC)CC)C(=O)N(C)[C@@H](CC(C)(C)O)C(=O)N[C@@H](C(C)C)C(=O)N(C)[C@@H](CC(C)C)C(=O)N[C@@H](C)C(=O)N[C@H](C)C(=O)N(C)[C@@H](CC(C)C)C(=O)N(C)[C@@H](CC(C)C)C(=O)N(C)[C@@H](C(C)C)C(=O)N1C,80
26,CC=CCC(C)C(O)C1C(=O)NC(CC)C(=O)N(C)C(CSCCCN(C)C)C(=O)N(C)C(CC(C)(C)OC)C(=O)NC(C(C)C)C(=O)N(C)C(CC(C)C)C(=O)NC(C)C(=O)NC(C)C(=O)N(C)C(CC(C)C)C(=O)N(C)C(CC(C)C)C(=O)N(C)C(C(C)C)C(=O)N1C (stereo not shown),90
27,C/C=C/C[C@@H](C)[C@@H](O)[C@H]1C(=O)N[C@@H](CC)C(=O)N(C)[C@H](CSCCCN(C)C)C(=O)N(C)[C@@H](CC(C)(C)O)C(=O)N[C@@H](C(C)C)C(=O)N(C)[C@@H](CC(C)C)C(=O)N[C@@H](C)C(=O)N[C@H](C)C(=O)N(C)[C@@H](CC(C)C)C(=O)N(C)[C@@H](CC(C)C)C(=O)N(C)[C@@H](C(C)C)C(=O)N1C,110
28,CC=CCC(C)C(O)C1C(=O)NC(CC)C(=O)N(C)C(CSCCCN2CCCCC2)C(=O)N(C)C(CC(C)(C)OC)C(=O)NC(C(C)C)C(=O)N(C)C(CC(C)C)C(=O)NC(C)C(=O)NC(C)C(=O)N(C)C(CC(C)C)C(=O)N(C)C(CC(C)C)C(=O)N(C)C(C(C)C)C(=O)N1C (stereo not shown),60

# Same assay, conditions: Table 14, HCV replicon luciferase; read-out: Antiviral activity EC50
row,SMILES,EC50 [nM]
1,C/C=C/C[C@@H](C)[C@@H](O)[C@H]1C(=O)N[C@@H](CC)C(=O)N(C)[C@H](COCCCN2CCCC2)C(=O)N(C)[C@@H](CC(C)(C)O)C(=O)N[C@@H](C(C)C)C(=O)N(C)[C@@H](CC(C)C)C(=O)N[C@@H](C)C(=O)N[C@H](C)C(=O)N(C)[C@@H](CC(C)C)C(=O)N(C)[C@@H](CC(C)C)C(=O)N(C)[C@@H](C(C)C)C(=O)N1C,120

# Same assay, conditions: Table 16, HCV replicon luciferase; read-out: Antiviral activity EC50
row,SMILES,EC50 [nM]
1,C/C=C/C[C@@H](C)[C@@H](O)[C@H]1C(=O)N[C@@H](CC)C(=O)N(C)[C@H](CSCCCN2CCN(C)CC2)C(=O)N(C)[C@@H](CC(C)(C)O)C(=O)N[C@@H](C(C)C)C(=O)N(C)[C@@H](CC(C)C)C(=O)N[C@@H](C)C(=O)N[C@H](C)C(=O)N(C)[C@@H](CC(C)C)C(=O)N(C)[C@@H](CC(C)C)C(=O)N(C)[C@@H](C(C)C)C(=O)N1C,40
2,C/C=C/C[C@@H](C)[C@@H](O)[C@H]1C(=O)N[C@@H](CC)C(=O)N(C)[C@H](CSCCCN2CCOCC2)C(=O)N(C)[C@@H](CC(C)(C)O)C(=O)N[C@@H](C(C)C)C(=O)N(C)[C@@H](CC(C)C)C(=O)N[C@@H](C)C(=O)N[C@H](C)C(=O)N(C)[C@@H](CC(C)C)C(=O)N(C)[C@@H](CC(C)C)C(=O)N(C)[C@@H](C(C)C)C(=O)N1C,40
